Measured values: US20180066268A1, “USE OF VITAMINS AND VITAMIN METABOLIC GENES AND PROTEINS FOR RECOMBINANT PROTEIN PRODUCTION IN MAMMALIAN CELLS” (priority 2015, published 2018)

Columns and labels:
CHO-M cells [1] = assay: CHO-M growth in vitamin-depleted B-CDmin medium complemented with lower concentrations of each vitamin; format: cell-based, Chinese hamster
Description: Cells (5000 cells/ml) were transferred into 150 μl media with different concentrations of vitamin B1, B5 or H (from 0 to 1×, see Table 2). 96 well-plates were used and growth was measured after 9 days of culture, by measuring the OD at 600 nm. Hatched (forward-leaning), dotted dark and hatched (backward-leaning) bars indicate modulation of B1, B5 and H concentrations, respectively.
The depleted B-CDmin medium was complemented with lower concentration of each vitamin separately, to determine the contrations range limiting CHO-M growth.
Suspension Chinese hamster ovary cells (CHO-M) were maintained in suspension culture in SFM4CHO-M Hyclone serum-free medium (SFM, ThermoScientific™) supplemented with L-glutamine (PAA, Austria) and HT supplement (GIBCO, INVITROGEN LIFE SCIENCES) at […], 5% CO2 in humidified air. Other cell media used for these experiments are the BalanCD CHO-M Growth A (B-CDfull; Irvine Scientific), and the Deficient BalanCD CHO-M Growth A (B-CDmin; Irvine Scientific), supplemented with vitamin B1 (thiamine Hydrochloride; SIGMA ALDRICH), vitamin B5 (Calcium DL-Pantothenate; TCI) and vitamin H (Biotin, SIGMA ALDRICH)

CHO-M cells [2] = assay: CHO-M growth in B-CDmin medium supplemented with various concentrations of B5 and H; format: cell-based, Chinese hamster; details: B5 in 10× excess with low H (10×B5; 10^−4×H), 6 days of culture
Description: Cells were seeded at 20000 cells/ml into 500 μl of B-CD min media supplemented with the indicated amounts of vitamin B5 and H, and with B1 (1×). A 24 well-plate was used and growth was measured after 6 days of culture by measuring viable cell density.

Compound | cell density versus full medium (CHO-M cells [1]; H at low concentration (10^−5×)) | limiting concentration (CHO-M cells [1]; absolute concentration as printed, CHO-M, 9 days of culture) [µM] | growth-limiting concentration range (CHO-M cells [1]; relative to standard concentration (1×: B1 7.5 μM, B5 2.5 μM, H 0.5 μM), CHO-M, 9 days of culture) | untransformed cell growth relative to complete medium (1×B5; 10^−4×H) (CHO-M cells [2]) | concentration allowing normal culture growth (CHO-M cells [1]; relative to standard B5 concentration (1× = 2.5 μM))
O=C(O)CCCC[C@@H]1SC[C@@H]2NC(=O)N[C@@H]21 [H, Biotin] | slightly higher | < 5 | lower than 10^−5 × |  | 
Calcium DL-Pantothenate [B5] |  |  |  | strongly inhibited | ≥ 10^−2 ×
